Experimental data as given in the supplement of paper PMC12463676, “Small-molecule dissolution of stress granules by redox modulation benefits ALS models” (Nature Chemical Biology, 2025).

What follows are targets tested with NC(=O)CCCCC1CCSS1 [lipoamide] (assay: thermal stability z-score vs DMSO; higher = more thermally stabilized by treatment). Details: HeLa; lipoamide concentration 100 µM; arsenate co-treatment: 1 mM arsenate 1 h.
Experimental: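 Cellular thermal proteome profiling in HeLa cells. Cells were treated with 100 µM lipoamide for 1 h, with or without 1 mM arsenate for a further 1 h, then heated to ten temperatures (37-66.3 °C), and soluble protein was quantified by TMT mass spectrometry relative to 0.1% DMSO controls. The thermal stability score (sum of log2 fold changes minus the abundance score) was transformed to a z-score; mean of n = 3 experiments.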
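Further: each temperature applied for 3 min, abundance score taken as mean log2 fold change at the two lowest temperatures, z-score obtained by mean subtraction and division by SD.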

Chain of UniProt Q9Y6D0 (Q9Y6D0 whole entry): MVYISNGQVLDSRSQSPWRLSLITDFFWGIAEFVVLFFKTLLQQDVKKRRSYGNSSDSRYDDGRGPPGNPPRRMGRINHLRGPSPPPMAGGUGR
Chain of UniProt Q96HA8 (Q96HA8 whole entry): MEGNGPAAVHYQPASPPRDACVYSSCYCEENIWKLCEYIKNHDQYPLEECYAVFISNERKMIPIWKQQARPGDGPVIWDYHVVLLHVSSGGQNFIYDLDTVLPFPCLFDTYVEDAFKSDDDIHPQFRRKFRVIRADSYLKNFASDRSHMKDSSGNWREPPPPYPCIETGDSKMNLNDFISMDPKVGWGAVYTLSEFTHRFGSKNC
Chain of UniProt Q6P2E9 (Q6P2E9 whole entry): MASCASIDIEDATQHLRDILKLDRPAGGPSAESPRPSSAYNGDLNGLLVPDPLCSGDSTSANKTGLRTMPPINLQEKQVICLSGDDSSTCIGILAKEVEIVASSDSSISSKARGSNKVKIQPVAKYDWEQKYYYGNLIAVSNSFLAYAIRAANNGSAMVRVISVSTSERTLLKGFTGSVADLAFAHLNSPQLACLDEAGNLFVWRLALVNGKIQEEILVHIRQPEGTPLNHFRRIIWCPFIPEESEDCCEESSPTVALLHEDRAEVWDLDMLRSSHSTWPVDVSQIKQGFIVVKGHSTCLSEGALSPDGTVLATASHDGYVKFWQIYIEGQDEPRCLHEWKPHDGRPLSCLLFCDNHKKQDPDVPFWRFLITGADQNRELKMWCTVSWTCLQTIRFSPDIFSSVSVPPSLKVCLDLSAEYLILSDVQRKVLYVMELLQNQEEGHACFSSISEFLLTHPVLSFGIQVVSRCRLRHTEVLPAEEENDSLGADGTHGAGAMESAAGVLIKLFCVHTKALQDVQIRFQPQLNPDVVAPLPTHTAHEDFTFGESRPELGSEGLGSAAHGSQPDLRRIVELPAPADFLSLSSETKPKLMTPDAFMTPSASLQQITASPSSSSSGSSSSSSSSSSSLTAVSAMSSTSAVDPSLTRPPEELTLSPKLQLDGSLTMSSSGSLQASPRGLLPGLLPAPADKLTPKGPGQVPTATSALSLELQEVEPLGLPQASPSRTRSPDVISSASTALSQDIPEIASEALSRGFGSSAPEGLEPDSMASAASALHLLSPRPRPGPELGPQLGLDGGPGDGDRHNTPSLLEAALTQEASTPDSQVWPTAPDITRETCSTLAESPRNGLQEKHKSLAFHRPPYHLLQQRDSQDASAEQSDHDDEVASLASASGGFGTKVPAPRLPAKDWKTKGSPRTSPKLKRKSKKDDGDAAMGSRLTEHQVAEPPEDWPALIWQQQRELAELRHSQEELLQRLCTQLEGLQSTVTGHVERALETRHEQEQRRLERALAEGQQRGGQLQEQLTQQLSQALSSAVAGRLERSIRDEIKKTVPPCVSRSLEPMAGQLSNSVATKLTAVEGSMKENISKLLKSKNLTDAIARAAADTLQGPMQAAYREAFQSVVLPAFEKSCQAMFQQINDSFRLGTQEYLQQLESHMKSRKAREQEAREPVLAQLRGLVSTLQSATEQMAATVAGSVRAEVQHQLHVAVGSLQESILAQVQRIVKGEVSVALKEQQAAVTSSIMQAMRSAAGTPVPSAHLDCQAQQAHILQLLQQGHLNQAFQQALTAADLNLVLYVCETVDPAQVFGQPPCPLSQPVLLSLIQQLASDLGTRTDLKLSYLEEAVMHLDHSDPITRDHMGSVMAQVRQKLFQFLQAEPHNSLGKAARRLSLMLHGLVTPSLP
Chain of UniProt Q86U90 (Q86U90 whole entry): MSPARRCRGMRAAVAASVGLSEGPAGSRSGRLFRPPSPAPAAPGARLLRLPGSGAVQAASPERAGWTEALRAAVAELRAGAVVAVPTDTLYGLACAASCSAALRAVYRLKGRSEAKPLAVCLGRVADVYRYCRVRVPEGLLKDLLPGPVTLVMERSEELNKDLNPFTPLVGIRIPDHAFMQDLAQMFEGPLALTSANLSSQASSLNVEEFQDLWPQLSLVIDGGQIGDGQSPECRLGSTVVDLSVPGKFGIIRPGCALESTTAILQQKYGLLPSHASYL
Chain of UniProt P42695 (P42695 whole entry): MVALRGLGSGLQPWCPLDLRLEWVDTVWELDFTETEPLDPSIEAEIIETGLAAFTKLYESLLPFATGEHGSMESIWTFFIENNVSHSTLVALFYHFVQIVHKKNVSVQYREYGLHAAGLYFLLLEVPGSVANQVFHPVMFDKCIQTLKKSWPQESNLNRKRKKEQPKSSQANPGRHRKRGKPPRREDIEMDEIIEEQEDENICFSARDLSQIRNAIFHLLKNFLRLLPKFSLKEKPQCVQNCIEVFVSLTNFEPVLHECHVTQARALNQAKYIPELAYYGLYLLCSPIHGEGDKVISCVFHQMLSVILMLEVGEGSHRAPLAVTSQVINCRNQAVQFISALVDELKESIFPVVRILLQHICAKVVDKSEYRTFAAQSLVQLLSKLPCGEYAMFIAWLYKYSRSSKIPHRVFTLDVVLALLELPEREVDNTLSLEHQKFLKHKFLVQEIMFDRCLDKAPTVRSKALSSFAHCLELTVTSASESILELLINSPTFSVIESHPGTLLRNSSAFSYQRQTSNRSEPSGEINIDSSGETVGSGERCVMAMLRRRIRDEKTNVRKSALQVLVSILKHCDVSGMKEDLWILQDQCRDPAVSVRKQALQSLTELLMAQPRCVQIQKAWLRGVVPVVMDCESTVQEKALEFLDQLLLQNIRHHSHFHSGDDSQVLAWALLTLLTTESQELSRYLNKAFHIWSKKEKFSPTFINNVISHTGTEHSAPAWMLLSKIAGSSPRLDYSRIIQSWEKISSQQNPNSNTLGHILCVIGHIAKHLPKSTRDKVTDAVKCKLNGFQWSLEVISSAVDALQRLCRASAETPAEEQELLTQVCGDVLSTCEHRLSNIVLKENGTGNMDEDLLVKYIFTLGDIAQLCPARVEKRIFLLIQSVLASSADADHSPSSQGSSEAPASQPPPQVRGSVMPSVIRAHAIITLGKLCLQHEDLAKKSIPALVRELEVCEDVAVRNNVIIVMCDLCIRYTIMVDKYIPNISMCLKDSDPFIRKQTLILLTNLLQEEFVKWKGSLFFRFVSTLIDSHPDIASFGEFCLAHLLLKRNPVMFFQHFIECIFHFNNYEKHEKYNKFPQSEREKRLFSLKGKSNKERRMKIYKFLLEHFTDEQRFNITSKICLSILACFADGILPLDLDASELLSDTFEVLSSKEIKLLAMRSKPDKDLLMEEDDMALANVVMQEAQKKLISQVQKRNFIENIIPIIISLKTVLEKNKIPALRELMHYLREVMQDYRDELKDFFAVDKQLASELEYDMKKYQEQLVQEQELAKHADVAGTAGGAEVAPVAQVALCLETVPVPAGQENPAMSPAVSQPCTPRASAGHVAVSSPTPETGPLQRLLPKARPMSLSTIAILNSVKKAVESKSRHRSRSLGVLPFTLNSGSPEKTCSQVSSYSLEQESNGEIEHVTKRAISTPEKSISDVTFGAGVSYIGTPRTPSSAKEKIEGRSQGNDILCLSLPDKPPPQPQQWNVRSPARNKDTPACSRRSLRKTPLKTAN
Chain of UniProt Q8TC12 (Q8TC12 whole entry): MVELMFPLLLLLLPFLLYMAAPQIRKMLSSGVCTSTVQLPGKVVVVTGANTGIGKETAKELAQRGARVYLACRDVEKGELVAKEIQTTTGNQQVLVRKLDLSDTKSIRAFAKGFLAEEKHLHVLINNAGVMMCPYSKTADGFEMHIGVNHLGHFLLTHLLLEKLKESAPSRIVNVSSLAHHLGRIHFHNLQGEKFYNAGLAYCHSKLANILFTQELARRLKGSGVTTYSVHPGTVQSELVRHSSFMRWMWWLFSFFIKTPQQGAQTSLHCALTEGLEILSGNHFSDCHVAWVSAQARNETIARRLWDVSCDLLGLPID
Chain of UniProt P26640 (P26640 whole entry): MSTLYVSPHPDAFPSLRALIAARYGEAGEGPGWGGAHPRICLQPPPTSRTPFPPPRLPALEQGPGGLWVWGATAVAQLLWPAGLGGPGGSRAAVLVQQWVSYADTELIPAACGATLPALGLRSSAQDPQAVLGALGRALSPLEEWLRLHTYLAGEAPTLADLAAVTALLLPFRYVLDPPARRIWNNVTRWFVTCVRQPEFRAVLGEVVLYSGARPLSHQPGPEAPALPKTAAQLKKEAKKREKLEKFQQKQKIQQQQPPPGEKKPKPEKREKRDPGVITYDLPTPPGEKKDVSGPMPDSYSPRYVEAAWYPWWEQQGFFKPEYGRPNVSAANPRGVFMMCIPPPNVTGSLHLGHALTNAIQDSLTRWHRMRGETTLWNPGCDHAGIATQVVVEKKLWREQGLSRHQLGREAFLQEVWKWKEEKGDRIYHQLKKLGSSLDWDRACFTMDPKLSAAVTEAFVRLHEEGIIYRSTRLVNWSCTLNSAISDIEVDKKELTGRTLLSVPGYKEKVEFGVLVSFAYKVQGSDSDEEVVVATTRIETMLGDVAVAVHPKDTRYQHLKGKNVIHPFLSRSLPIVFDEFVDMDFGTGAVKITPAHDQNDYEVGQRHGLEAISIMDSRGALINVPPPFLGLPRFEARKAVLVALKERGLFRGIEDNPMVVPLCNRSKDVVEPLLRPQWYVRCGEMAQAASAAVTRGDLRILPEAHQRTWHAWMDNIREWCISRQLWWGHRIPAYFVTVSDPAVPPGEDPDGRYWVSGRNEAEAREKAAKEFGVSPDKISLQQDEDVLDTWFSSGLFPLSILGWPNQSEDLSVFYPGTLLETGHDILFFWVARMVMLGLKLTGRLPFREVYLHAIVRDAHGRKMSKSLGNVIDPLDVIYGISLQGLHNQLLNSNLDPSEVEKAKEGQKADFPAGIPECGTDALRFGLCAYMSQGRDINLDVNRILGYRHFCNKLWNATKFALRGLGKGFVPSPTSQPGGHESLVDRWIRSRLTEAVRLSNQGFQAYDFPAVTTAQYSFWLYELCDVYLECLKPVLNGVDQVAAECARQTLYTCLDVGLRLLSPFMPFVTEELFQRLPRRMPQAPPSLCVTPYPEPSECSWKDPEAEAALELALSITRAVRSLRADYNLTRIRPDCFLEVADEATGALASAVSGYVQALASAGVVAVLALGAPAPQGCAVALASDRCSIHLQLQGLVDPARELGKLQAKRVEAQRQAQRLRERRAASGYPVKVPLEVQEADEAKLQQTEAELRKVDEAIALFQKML

Point of comparison: GDE1 (UniProt Q9NZC3), thermal stability z-score -0.631. Against it:
- WDYHV1 (UniProt Q96HA8) — higher, 0.206
- PPT1 (UniProt P50897) — higher, -0.494
- ABCC5 (UniProt O15440) — higher, 0.335
- NOSIP (UniProt Q9Y314) — lower, -1.04
- EDC3 (UniProt Q96F86) — lower, -0.713
- OASL (UniProt Q15646) — higher, -0.147
- UPF2 (UniProt Q9HAU5) — higher, -0.16
- NCAPD3 (UniProt P42695) — higher, 0.394
- TCEA1 (UniProt P23193) — higher, 0.138
- SELK (UniProt Q9Y6D0) — higher, 0.406
- ALG3 (UniProt Q92685) — higher, -0.0793
- SNRPF (UniProt P62306) — higher, 0.0402
- NACA — higher, 0.468
- CUL4A (UniProt Q13619) — higher, 0.0347
- SEL1L (UniProt Q9UBV2) — lower, -2.16
- DFNA5 (UniProt O60443) — higher, 0.218
- UBE2E3 (UniProt Q969T4) — higher, 0.196
- SEC24D (UniProt O94855) — higher, 0.087
- TRIP13 (UniProt Q15645) — higher, -0.215
- RPS21 (UniProt P63220) — higher, 0.253
- RALGAPA1 (UniProt Q6GYQ0) — higher, -0.102
- C2ORF47 (UniProt Q8WWC4) — higher, 0.0998
- VARS (UniProt P26640) — higher, 0.0159
- RDH11 (UniProt Q8TC12) — higher, -0.514
- POLDIP2 (UniProt Q9Y2S7) — higher, -0.119
- C16ORF62 (UniProt Q7Z3J2) — higher, 0.411
- YRDC (UniProt Q86U90) — higher, 0.45
- IL18 (UniProt Q14116) — higher, 0.282
- COG5 (UniProt Q9UP83) — higher, -0.297
- CETN3 (UniProt O15182) — higher, 1.25
- TAP1 (UniProt Q03518) — higher, -0.509
- EDC4 (UniProt Q6P2E9) — higher, -0.258
- DDX21 (UniProt Q9NR30) — higher, 0.693
- RUFY1 (UniProt Q96T51) — lower, -0.702
- TRMT2A (UniProt Q8IZ69) — higher, -0.235

Same assay, conditions: HeLa; lipoamide concentration 100 µM; arsenate co-treatment: none

Point of comparison: YRDC (UniProt Q86U90), thermal stability z-score 0.0491. Against it:
- AGO1 (UniProt Q9UL18) — lower, -0.396
- SCRIB — lower, -0.22
- CTPS2 (UniProt Q9NRF8) — lower, -0.0335
- TBC1D13 (UniProt Q9NVG8) — higher, 0.109
- CLYBL (UniProt Q8N0X4) — higher, 0.433
- AK1 (UniProt P00568) — higher, 0.28
- PDE8B (UniProt O95263) — higher, 0.202
- WASF2 (UniProt Q9Y6W5) — lower, -0.155
- RIC8A (UniProt Q9NPQ8) — lower, -0.238
- FOSL2 (UniProt P15408) — higher, 0.702
- NLE1 (UniProt Q9NVX2) — higher, 0.2
- KLHDC3 (UniProt Q9BQ90) — lower, -0.351
- GINS4 (UniProt Q9BRT9) — lower, -0.173
- SRFBP1 (UniProt Q8NEF9) — lower, -0.0723
- RTF1 (UniProt Q92541) — higher, 0.0546
- A0A087WV05|MYCBP — higher, 1.66
- BAZ1A (UniProt Q9NRL2) — higher, 0.0591
- SREK1 (UniProt Q8WXA9) — higher, 0.0581
- SEPHS1 (UniProt P49903) — higher, 0.065
- BNIP2 (UniProt Q12982) — higher, 0.0699
- METTL16 (UniProt Q86W50) — lower, -0.347
- FLJ13984|METTL8 — lower, -0.13
- TBC1D2B (UniProt Q9UPU7) — lower, -0.202
- RACK1 (UniProt P63244) — higher, 0.4
- SSFA2 (UniProt P28290) — lower, -0.00989
- NEK7 (UniProt Q8TDX7) — lower, -0.453
- SDSL (UniProt Q96GA7) — higher, 1.46
- XPNPEP3 (UniProt Q9NQH7) — lower, 0.018
- ESD (UniProt P10768) — lower, -0.395
- ENTHD2 (UniProt Q96N21) — lower, -0.0659
- BIN1 (UniProt O00499) — lower, -0.803
- REPS2 (UniProt Q8NFH8) — lower, -0.0113
- AP4B1 (UniProt Q9Y6B7) — lower, -0.147
- PKP3 (UniProt Q9Y446) — higher, 0.603
- TRAF7 (UniProt Q6Q0C0) — lower, -0.686
- A0A0C4DFX4|SRCAP — lower, -0.226
- WDYHV1 (UniProt Q96HA8) — higher, 0.157
- PPT1 (UniProt P50897) — lower, -0.324
- ABCC5 (UniProt O15440) — lower, 0.0156
- NOSIP (UniProt Q9Y314) — lower, -0.0974
- EDC3 (UniProt Q96F86) — lower, -0.608
- OASL (UniProt Q15646) — lower, -0.0704
- UPF2 (UniProt Q9HAU5) — higher, 0.104
- NCAPD3 (UniProt P42695) — higher, 0.105
- TCEA1 (UniProt P23193) — higher, 0.297
- SELK (UniProt Q9Y6D0) — lower, -0.759
- ALG3 (UniProt Q92685) — lower, -0.236
- SNRPF (UniProt P62306) — lower, -0.072
- NACA — higher, 0.47
- CUL4A (UniProt Q13619) — lower, -0.214
- SEL1L (UniProt Q9UBV2) — lower, -1.76
- DFNA5 (UniProt O60443) — higher, 0.152
- GDE1 (UniProt Q9NZC3) — lower, -0.947
- UBE2E3 (UniProt Q969T4) — lower, -0.0847
- SEC24D (UniProt O94855) — lower, -0.238
- TRIP13 (UniProt Q15645) — lower, -0.735
- RPS21 (UniProt P63220) — higher, 0.512
- RALGAPA1 (UniProt Q6GYQ0) — lower, -0.115
- C2ORF47 (UniProt Q8WWC4) — lower, -0.181
- VARS (UniProt P26640) — lower, -0.0112
- RDH11 (UniProt Q8TC12) — higher, 0.808
- POLDIP2 (UniProt Q9Y2S7) — lower, -0.241
- C16ORF62 (UniProt Q7Z3J2) — higher, 0.213
- IL18 (UniProt Q14116) — lower, -0.0498
- COG5 (UniProt Q9UP83) — lower, -0.0509
- CETN3 (UniProt O15182) — higher, 1.49
- TAP1 (UniProt Q03518) — lower, -0.0614
- EDC4 (UniProt Q6P2E9) — higher, 0.0716
- DDX21 (UniProt Q9NR30) — higher, 0.249
- RUFY1 (UniProt Q96T51) — lower, -0.00916
- TRMT2A (UniProt Q8IZ69) — lower, -0.172
